In patent US6337344B1, “Indole derivatives as inhibitors or factor Xa” (Aventis Pharma Deutschland GmbH, priority 1997, dated 2002) one finds melting point and Ki data, which are given here for 30 compounds.

SMILES strings stand for the structures. Counter-ions that a name gives are not always drawn.

T1 sequence (P00742 235-488 limits assumed): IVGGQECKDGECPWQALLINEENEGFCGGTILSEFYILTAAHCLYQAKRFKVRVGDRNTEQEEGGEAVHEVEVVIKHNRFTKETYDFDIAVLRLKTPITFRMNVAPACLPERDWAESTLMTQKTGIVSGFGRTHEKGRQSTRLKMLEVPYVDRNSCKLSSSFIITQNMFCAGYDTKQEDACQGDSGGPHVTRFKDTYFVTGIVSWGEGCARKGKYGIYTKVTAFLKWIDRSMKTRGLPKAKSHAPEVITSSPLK
T1 sequence (P00742 41-179 partner limits assumed): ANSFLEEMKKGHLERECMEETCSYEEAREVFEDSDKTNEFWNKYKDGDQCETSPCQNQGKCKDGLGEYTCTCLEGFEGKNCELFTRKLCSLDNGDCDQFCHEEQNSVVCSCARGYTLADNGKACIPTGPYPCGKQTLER

System in the first series: not given
Experiment: not given
The compound `Cc1cc(CNC(=O)c2cc3c(O)cccc3n2Cc2cccc(C(=N)N)c2)cc(C(F)(F)F)c1` (as salt: trifluoroacetic acid salt) [Example 112] showed a melting point of 126 °C.

`N=C(N)c1cccc(CNC(=O)c2c(Cl)c3ccccc3n2Cc2cccc(C(=N)N)c2)c1` (as salt: trifluoroacetic acid salt) [Example 115] showed a melting point of 227 °C.

In turn, `N=C(N)c1cccc(Cn2c(C(=O)NCc3cc(Cl)cc(Cl)c3)cc3c(O)cccc32)c1` (as salt: trifluoroacetic acid salt) [Example 120] registered a melting point of 117 °C.

Turning to `COC(=O)c1cccc(CNC(=O)c2cc3c(O)cccc3n2Cc2cccc(C(=N)N)c2)c1` (as salt: trifluoroacetic acid salt) [Example 132], the melting point was found to be 95 °C.

On to `N=C(N)c1ccc(Cn2c(C(=O)NC(c3ccccc3)c3ccncc3)cc3ccccc32)cc1.O=C(O)C(F)(F)F.O=C(O)C(F)(F)F` (racemic), for which the melting point is 150 °C.

In turn, `COc1cccc2c1cc(C(=O)NC(c1ccccc1)c1ccncc1)n2Cc1cccc(C(=N)N)c1.O=C(O)C(F)(F)F.O=C(O)C(F)(F)F` (racemic) returned a melting point of 105 °C.

`N=C(N)c1cccc(Cn2c(C(=O)NC(c3ccccc3)c3ccncc3)cc3ccccc32)c1.O=C(O)C(F)(F)F.O=C(O)C(F)(F)F` (racemic) [Example 23, (RS)-1-(3-Amidino-benzyl)-1H-indole-2-carboxylic acid α-(4-pyridyl)-benzyl amide trifluoroacetic acid salt] registered a melting point of 88 to 92 °C.

As for `COc1cccc2c1cc(C(=O)NC(c1ccccc1)c1cc[n+](C)cc1)n2Cc1cccc(C(=N)N)c1.O=C(O)C(F)(F)F.O=C([O-])C(F)(F)F` (racemic) [Example 24, (RS)-4-({[1-(3-Amidino-benzyl)-4-methoxy-1H-indole-2-carbonyl]-amino}-phenyl-methyl)-1-methyl-pyridinium trifluoroacetate trifluoroacetic acid salt], the melting point amounted to 135 °C.

Turning to `CN1CCC(C(NC(=O)c2cc3ccccc3n2Cc2cccc(C(=N)N)c2)c2ccc3cc(Cl)ccc3c2)CC1.O=C(O)C(F)(F)F.O=C(O)C(F)(F)F` (racemic) [Example 27, (RS)-1-(3-Amidino-benzyl)-1H-indole-2-carboxylic acid ((6-chloro-2-naphthyl)-(1-methyl-piperidin-4-yl)-methyl)amide trifluoroacetic acid salt], the melting point lay within 110 to 120 °C.

Take `Cc1cccc2c1cc(C(=O)NCc1ccc([N+](C)(C)C)cc1)n2Cc1cccc(C(=N)N)c1.O=C(O)C(F)(F)F.O=C([O-])C(F)(F)F` [Example 35, [4-({[1-(3-Amidino-benzyl)-4-methyl-1H-indole-2-carbonyl]-amino}-methyl)-phenyl]-trimethyl-ammonium trifluoroacetate trifluoroacetic acid salt]: the melting point was 81 °C (dec.).

`COc1cccc2c1cc(C(=O)NCCc1ccncc1)n2Cc1cccc(/C(N)=N/O)c1` [Example 49, 1-(3-Hydroxyamidino-benzyl)-4-methoxy-1H-indole-2-carboxylic acid 2-(4-pyridyl)-ethyl amide] returned a melting point of 220 to 222 °C.

Regarding `COc1cccc2c1cc(C(=O)NCCc1ccc(O)cc1)n2Cc1cccc(/C(N)=N/O)c1` [Example 51, 1-(3-Hydroxyamidino-benzyl)-4-methoxy-1H-indole-2-carboxylic acid 2-(4-hydroxy-phenyl)-ethyl amide], the melting point was 173 to 175 °C (dec.).

As to `CN(C)c1ccc(CNC(=O)c2cc3cc(Cl)ccc3n2Cc2cccc(/C(N)=N/O)c2)cc1` [Example 52, 1-(3-Hydroxyamidino-benzyl)-5-chloro-1H-indole-2-carboxylic acid (4-dimethylamino)-benzyl amide], the melting point was 200 °C (dec.).

`N/C(=N\O)c1cccc(COC(=O)c2cc3ccccc3n2Cc2cccc(/C(N)=N/O)c2)c1` [Example 53, 1-(3-Hydroxyamidino-benzyl)-1H-indole-2-carboxylic acid (3-hydroxyamidino-benzyl)ester] gave a melting point of 114 to 116 °C.

In the case of `C[N+](C)(C)c1ccc(CNC(=O)c2cc3cc(OCc4ccccc4)ccc3n2Cc2cccc(C(=N)N)c2)cc1.O=C(O)C(F)(F)F.O=C([O-])C(F)(F)F` [Example 56, [4-({[5-Benzyloxy-1-(3-amidino-benzyl)-1H-indole-2-carbonyl]-amino}-methyl)-phenyl]-trimethyl-ammonium trifluoroacetate trifluoroacetic acid salt], the melting point is 60 °C (dec.).

As to `C[N+](C)(C)c1ccc(CNC(=O)c2cc3c(OCc4ccccc4)cccc3n2Cc2cccc(C(=N)N)c2)cc1.[I-]` [Example 68, [4-({[1-(3-Amidino-benzyl)-4-benzyloxy-1H-indole-2-carbonyl]-amino}-methyl)-phenyl]-trimethyl-ammonium iodide hydroiodide], the melting point was 158 °C (dec.).

Compound `N=C(N)c1cccc(CNC(=O)c2cc3c(O)cccc3n2Cc2cccc(C(=N)N)c2)c1.O=C(O)C(F)(F)F.O=C(O)C(F)(F)F` [Example 77, 1-(3-Amidino-benzyl)-4-hydroxy-1H-indole-2-carboxylic acid 3-amidino-benzylamide trifluoroacetic acid salt] returned a melting point of 128 to 131 °C.

Another series addresses T1, human factor Xa (Homo sapiens, UniProt P00742).
T1 construct: purchased Enzyme Research Laboratories, Inc; South Bend, Ind
Nature of the series: Factor Xa assay (Test 1, a.), chromogenic substrate S-2765. Type of series: biochemical. As for the experimental part: Purified enzymes are used in chromogenic assays. To determine the inhibition constant Ki, the IC50 value is corrected for competition with substrate using the formula
Ki'IC50×(1/{1+((substrate concentration)/substrate Km)})
wherein Km is the Michaelis-Menten constant (Chen and Prusoff, Biochem. Pharmacol. 22 (1973), […] which is incorporated herein by reference).
TBS-PEG buffer (50 mM Tris-Cl, pH 7.8, 200 mM NaCl, 0.05% (w/v) PEG-8000, 0.02% (w/v) NaN3) is used for this assay.
The assay is performed by pre-incubating the compound of formula I plus enzyme for 10 min. Then the assay is initiated by adding substrate to obtain a final volume of 100 μl. The initial velocity of chromogenic substrate hydrolysis is measured by the change in absorbance at 405 nm using a Bio-tek Instruments kinetic plate reader (Ceres UV900HDi) at 25° C. during the linear portion of the time course (usually 1.5 min after addition of substrate). The concentration of inhibitor that causes a 50% decrease in the rate of substrate hydrolysis is predicted by linear regression after plotting the relative rates of hydrolysis (compared to the uninhibited control) versus the log of the concentration of the compound of formula I. The enzyme concentration is 0.5 nM and substrate concentration is 140 μM.
The inhibition constants were determined as described above (Test 1, a., Factor Xa Assay).
The compound `CC(NC(=O)c1cc2ccccc2n1Cc1cccc(C(=N)N)c1)c1cc[n+](C)cc1` (racemic) [Example 2, (RS)-4-(1-{[1-(3-Amidino-benzyl)-1H-indole-2-carbonyl]-amino}-ethyl)-1-methylpyridinium trifluoroacetate trifluoroacetic acid salt, trifluoroacetate trifluoroacetic acid …] came in with a Ki of 100 nM.

As to `N=C(N)c1cccc(Cn2c(C(=O)NC(c3ccccc3)c3ccncc3)cc3ccccc32)c1.O=C(O)C(F)(F)F.O=C(O)C(F)(F)F` (racemic) [Example 23, (RS)-1-(3-Amidino-benzyl)-1H-indole-2-carboxylic acid α-(4-pyridyl)-benzyl amide trifluoroacetic acid salt], the affinity corresponds to a Ki of 7000 nM.

Compound `COc1cccc2c1cc(C(=O)NC(c1ccccc1)c1cc[n+](C)cc1)n2Cc1cccc(C(=N)N)c1.O=C(O)C(F)(F)F.O=C([O-])C(F)(F)F` (racemic) [Example 24, (RS)-4-({[1-(3-Amidino-benzyl)-4-methoxy-1H-indole-2-carbonyl]-amino}-phenyl-methyl)-1-methyl-pyridinium trifluoroacetate trifluoroacetic acid salt, trifluoroacetate trifluoroacetic acid …] gave a Ki of 110 nM.

In the case of `CN1CCC(C(NC(=O)c2cc3ccccc3n2Cc2cccc(C(=N)N)c2)c2ccc3cc(Cl)ccc3c2)CC1.O=C(O)C(F)(F)F.O=C(O)C(F)(F)F` (racemic) [Example 27, (RS)-1-(3-Amidino-benzyl)-1H-indole-2-carboxylic acid ((6-chloro-2-naphthyl)-(1-methyl-piperidin-4-yl)-methyl)amide trifluoroacetic acid salt], affinity was put at a Ki of 610 nM.

Compound `C[C@@H](NC(=O)c1cc2cc(OCc3ccccc3)ccc2n1Cc1cccc(C(N)=S)c1)c1ccccc1` [21(4), (R)-5-Benzyloxy-1-(3-thiocarbamoyl-benzyl)-1H-indole-2-carboxylic acid (1-phenyl-ethyl)amide] displayed a Ki of 4800 nM.

As to `C[N+](C)(C)c1ccc(CNC(=O)c2cc3ccccc3n2Cc2cccc(C(=N)N)c2)cc1` [Example 4, [4-({[1-(3-Amidino-benzyl)-1H-indole-2-carbonyl]-amino}-methyl)-phenyl]-trimethyl-ammonium trifluoroacetate trifluoroacetic acid salt, trifluoroacetate trifluoroacetic acid …], the affinity corresponds to a Ki of 90 nM.

The compound `C[N+](C)(C)Cc1ccc(CNC(=O)c2cc3ccccc3n2Cc2cccc(C(=N)N)c2)cc1` [Example 6, [4-({[1-(3-Amidino-benzyl)-1H-indole-2-carbonyl]-amino}-methyl)-benzyl]-trimethyl-ammonium trifluoroacetate trifluoroacetic acid salt, trifluoroacetate trifluoroacetic acid …] showed a Ki of 400 nM.

`Cc1cccc2c1cc(C(=O)NCc1ccc([N+](C)(C)C)cc1)n2Cc1cccc(C(=N)N)c1.O=C(O)C(F)(F)F.O=C([O-])C(F)(F)F` [Example 35, [4-({[1-(3-Amidino-benzyl)-4-methyl-1H-indole-2-carbonyl]-amino}-methyl)-phenyl]-trimethyl-ammonium trifluoroacetate trifluoroacetic acid salt, trifluoroacetate trifluoroacetic acid …] yielded a Ki of 9 nM.

`N=C(N)NCCC[C@H](NC(=O)c1cc2ccccc2n1Cc1ccc(C(=N)N)cc1)C(N)=O` [Example 81, 1-(4-Amidinobenzyl)-1H-indole-2-carbonyl-L-arginyl amide trifluoroacetic acid salt] came in with a Ki of 63000 nM.

As to `N=C(N)c1ccc(C(=O)N2CCc3c(n(Cc4cccc(C(=N)N)c4)c4ccccc34)C2)cc1` [Example 84, 2-(4-Amidino-benzoyl)-9-(3-amidino-benzyl)-1,2,3,4-tetrahydro-9H-pyrido[3,4-b]indole trifluoroacetic acid salt], the Ki came to 900 nM.

Compound `C[N+](C)(C)c1ccc(CNC(=O)c2c(Cl)c3ccccc3n2Cc2cccc(C(=N)N)c2)cc1` [Example 106] gave a Ki of 40 nM.

Regarding `Cc1cc(CNC(=O)c2cc3c(O)cccc3n2Cc2cccc(C(=N)N)c2)cc(C(F)(F)F)c1` [Example 112], affinity was put at a Ki of 13 nM.

On to `N=C(N)c1cccc(CNC(=O)c2c(Cl)c3ccccc3n2Cc2cccc(C(=N)N)c2)c1` [Example 115], for which the Ki amounted to 9 nM.

`N=C(N)c1cccc(Cn2c(C(=O)NCc3cc(Cl)cc(Cl)c3)cc3c(O)cccc32)c1` [Example 120] returned an inhibition constant Ki of 4.8 nM.

`COC(=O)c1cccc(CNC(=O)c2cc3c(O)cccc3n2Cc2cccc(C(=N)N)c2)c1` [Example 132] came in with an inhibition constant (Ki) of 2000 nM.

Usually melting point stands for the temperature of the solid-liquid transition. Usually Ki stands for the equilibrium dissociation constant of an inhibitor or competing ligand from its target. A lower Ki goes with tighter binding.
